Experimental findings from ChEMBL document CHEMBL3507680, “University of Dundee, Gates Library screen for HepG2 cell viability” are described below.

The nature of this data set: Human HepG2 cell viability assay in 384 well format. It counts as toxicity, cell-based. Further details: dose 125 nL, time 70.5 hour; concentration not given beside the values. Conditions: HepG2 cells, read-out: Inhibition.
Consider `CCN1C(=O)CCCC12CCCN(C(=O)c1ccncc1F)C2` (stereo not given), for which the cytotoxicity at 70.5 h is -2.27%.

Take `COc1ncccc1NC(=O)NC(C)(C)c1ncc(C)s1`: the cytotoxicity at 70.5 h came out at 16.5%.

With `c1cnn(Cc2nnc3n2CCCN(Cc2ccsc2)C3)c1`, the cytotoxicity at 70.5 h was 4.58%.

`COC(=O)CN(C(=O)C(C)c1c(F)cccc1F)c1cccc(C)n1` (stereo not given): the cytotoxicity at 70.5 h was -4.95%.

On to `Cc1cc(NC(=O)CN2CCCC2c2noc(C(C)C)n2)no1` (stereo not given), for which the cytotoxicity at 70.5 h is 14.1%.

Turning to `COc1ccc2nnc(CCC(=O)Nc3nc(C)c(C)s3)n2n1`, the cytotoxicity at 70.5 h is -9.75%.

For `Cn1ccc(CN2CCC(CN3CCOCC3)CC2)cc1=O`, the cytotoxicity at 70.5 h was -7.39%.

Turning to `C[C@@H](NC(=O)c1cccn1C)c1c(-c2ccc(Cl)cc2)noc1C(=O)O`, the cytotoxicity at 70.5 h was -7.66%.

On to `NC(=O)NC(CC(=O)N1CCc2sccc2C1)c1cccc(Br)c1` (stereo not given), for which the cytotoxicity at 70.5 h was -18.1%.

Consider `Cc1cnn(-c2ccc(S(=O)(=O)N(C)CC(F)F)cc2F)c1`, for which the cytotoxicity at 70.5 h is -8.45%.

Regarding `CC(C)CN1CCN(Cc2nc3ccccc3[nH]2)[C@H]2CS(=O)(=O)C[C@H]21`, the cytotoxicity at 70.5 h is -11.1%.

`COc1ccc(N2CCN(C(=O)Cn3nc(C)c(C)c3C)C(C)C2)cc1` (stereo not given): the cytotoxicity at 70.5 h was determined as 6.36%.

Regarding `CC(C)Cc1cc(CNC(=O)c2cccc3c2NCCC3)no1`, the cytotoxicity at 70.5 h was -8.61%.

With `COc1cc(C)ccc1OCCC(=O)N1CCCC(n2cncn2)C1` (stereo not given), the cytotoxicity at 70.5 h was -9.18%.

Regarding `CN(CC(C)(CO)CO)C(=O)Nc1cc(Cl)cc(Cl)c1`, the cytotoxicity at 70.5 h was -4.43%.

For `O=C(c1cccnc1)N(Cc1ccncc1)C1CC1`, the cytotoxicity at 70.5 h is -4.09%.

Turning to `O=C(NCC1CCCCC1)NC1CCCc2c1cnn2CCO` (stereo not given), the cytotoxicity at 70.5 h is -7.67%.

As for `CN(C)CCO[C@@H]1CC[C@H]2[C@H]1OCCN2C(=O)c1ccnnc1`, the cytotoxicity at 70.5 h amounted to 22.4%.

Consider `CCC(C(=O)NCC1CCN(c2ccncc2)CC1)N(C)C` (stereo not given), for which the cytotoxicity at 70.5 h is -7.96%.

For the compound `CCOc1ncccc1NC(=O)N1CCCCCC1`, the cytotoxicity at 70.5 h was -13.8%.

Consider `N#Cc1cccnc1N1CCC(Nc2ccccc2)C1` (stereo not given), for which the cytotoxicity at 70.5 h is -8.64%.

For `CSCC[C@H](N)c1nnc(SCC(=O)Nc2ccc(Br)cc2)o1`, the cytotoxicity at 70.5 h was -18.7%.

Take `CCN(CC)S(=O)(=O)N1CCC(c2nccn2Cc2ccccn2)CC1`: the cytotoxicity at 70.5 h was found to be 12.4%.

Turning to `COc1cccc(-c2nccnc2C2CCN(C(C)=O)CC2)c1`, the cytotoxicity at 70.5 h is -8.61%.

As to `CC(=O)NCC(=O)N1Cc2c(-c3cccc(C)c3)nc(N)nc2C1C` (stereo not given), the cytotoxicity at 70.5 h is -13.1%.

`NC(=O)N1C[C@@H]2CN(C(=O)c3ccco3)C[C@@H]2C1`: the cytotoxicity at 70.5 h is -7.36%.

As for `CCN(CC)c1nc2ccsc2c(=O)n1CCC(=O)NCc1cccs1`, the cytotoxicity at 70.5 h was -9.85%.

As to `CCN1CCOC(CNCc2ccccn2)C1` (stereo not given), the cytotoxicity at 70.5 h was -7.88%.

For the compound `OC1CCN(c2ccc(CNc3nc4ccccc4o3)cc2F)CC1`, the cytotoxicity at 70.5 h was -9.97%.

For the compound `COc1cc2cc(C(=O)NCC(=O)O)n(C)c2c(OC)c1OC`, the cytotoxicity at 70.5 h came out at 31.9%.

Take `Cc1ccc(CN2CCc3c(nnn3C)C2COCc2ccccc2)s1` (stereo not given): the cytotoxicity at 70.5 h is -7.66%.

With `CCc1ccc2c(C3CN(C(C)=O)C3)ncn2c1`, the cytotoxicity at 70.5 h was -3.55%.

As to `CC(C)(C(=O)N[C@@H]1CCC[C@@H](O)[C@@H]1O)c1cccc(F)c1`, the cytotoxicity at 70.5 h is -4.01%.

In the case of `CC(C)(C)c1ncc(S(C)(=O)=O)c(C2CCCNC2)n1` (stereo not given), the cytotoxicity at 70.5 h was -6.75%.

`CC(C)NC(=O)c1nn(C)c(NC(=O)Cc2ccccc2)c1F`: the cytotoxicity at 70.5 h is -11.4%.

Take `O=S1(=O)NCC2(CCCN(Cc3cccnc3)C2)Oc2ncccc21` (stereo not given): the cytotoxicity at 70.5 h amounted to 26.5%.

Consider `Cc1nc(C)n(C2CCCN(C(=O)c3cc(C4CC4)on3)C2)n1` (stereo not given), for which the cytotoxicity at 70.5 h was 1.36%.

For `CCc1nc(C2CCCN(C(=O)c3cn(C)nc3C)C2)no1` (stereo not given), the cytotoxicity at 70.5 h came out at 36.3%.

As to `CCN1CC2(CCOCC2)c2cc(NS(=O)(=O)CC)ccc21`, the cytotoxicity at 70.5 h is -2.27%.

Turning to `CCCC(=O)NCC(=O)NC(c1ccc(Cl)cc1)C(F)(F)F` (stereo not given), the cytotoxicity at 70.5 h was found to be 8.36%.

As to `CC(C)c1nc(C2CCCN2c2cnc3cc(F)c(F)cc3n2)no1` (stereo not given), the cytotoxicity at 70.5 h was -5.58%.

For the compound `COCCN1C(=O)C2(CCC(C(=O)Nc3cccc(C)c3)CC2)N=C1C` (stereo not given), the cytotoxicity at 70.5 h is -9.96%.

Regarding `Cc1cccnc1CN1CCC2(CC(Nc3ccncn3)C2)C1` (stereo not given), the cytotoxicity at 70.5 h is 1.25%.

As to `CCCN1C[C@H]2CC[C@@H]1CN(Cc1ccc(-n3cccn3)cc1)C2`, the cytotoxicity at 70.5 h is 23.7%.

For the compound `CC(C)(C)c1cc(=O)[nH]c(C2(N)CCCC2)n1`, the cytotoxicity at 70.5 h is 14.1%.

For the compound `CSc1nc(C2CC2)nc(C)c1C(=O)NCc1ncc(C)o1`, the cytotoxicity at 70.5 h is -2.47%.

Take `CC(C)C1CCN(C(=O)NCC(=O)N(C)CC(F)(F)F)CC1`: the cytotoxicity at 70.5 h stood at 20.8%.

With `Cn1cc(CN2CCC(CCC(=O)NCc3ccc(F)cc3)CC2)cn1`, the cytotoxicity at 70.5 h is 4.72%.

As to `Cc1noc(C(C)C)c1C(=O)NCCCN1CCCC1`, the cytotoxicity at 70.5 h was -6.55%.

For `CCCc1noc(CN(C)Cc2ccc3c(c2)OCO3)n1`, the cytotoxicity at 70.5 h amounted to 17.8%.

Regarding `N#Cc1ccc(CNC(=O)NCCC(=O)NC2CCCC2)c(F)c1`, the cytotoxicity at 70.5 h was -2.28%.

`CO[C@H]1CCN(S(=O)(=O)c2cccs2)[C@H]1Cc1cccnc1`: the cytotoxicity at 70.5 h amounted to 2.3%.

Take `COCCN1CCCC1c1nccnc1Nc1nc(C)cs1` (stereo not given): the cytotoxicity at 70.5 h is -21.9%.

Regarding `COC1COC2(CCN(Cc3ccc4c(c3)OCO4)CC2)C1` (stereo not given), the cytotoxicity at 70.5 h was 0.98%.

`CC(C)Cc1cc(CC2(NCc3ccco3)COC2)no1`: the cytotoxicity at 70.5 h was -3.13%.

On to `Cc1cnn(CC2CCCN2c2ncnc3ccsc23)c1` (stereo not given), for which the cytotoxicity at 70.5 h worked out at 5.5%.

Turning to `Cc1ccc(NC(=O)N(C)Cc2cnn(C)c2)cc1OCC(F)F`, the cytotoxicity at 70.5 h came out at 26.4%.

`CCC(C)(C)C(=O)N1CCN(C2=NCC(C)S2)CC1` (stereo not given): the cytotoxicity at 70.5 h is -8.95%.

For `c1csc(CN2CCCN(c3ncnc4[nH]ccc34)CC2)c1`, the cytotoxicity at 70.5 h was -13.6%.

Take `COCCNc1nnc(-c2ccccn2)s1`: the cytotoxicity at 70.5 h is -4.27%.

For `CCOC(=O)C1(Cc2ccc(Cl)cc2)CCN(Cc2ncc[nH]2)CC1`, the cytotoxicity at 70.5 h is -10.4%.

Take `CCc1cnc(NCCCN2CCC(O)CC2)nc1`: the cytotoxicity at 70.5 h was -1.08%.

With `C[C@@H]1CN(C2CCOC2)C[C@]12CCN(Cc1cccnc1)C2=O` (stereo not given in full), the cytotoxicity at 70.5 h was -10.6%.

Turning to `CC(C)(C)c1csc(CNC(=O)C2NCCc3[nH]cnc32)n1` (stereo not given), the cytotoxicity at 70.5 h was -9.53%.

With `COCC(=O)N1CC[C@@H]2O[C@H](COCc3ccncc3)CC[C@@H]21`, the cytotoxicity at 70.5 h is -15.9%.

Regarding `NC[C@H]1[C@H]2CN(Cc3ccccc3)C[C@@H]12`, the cytotoxicity at 70.5 h was 0.818%.

On to `CC(C)c1ccc(CCC(=O)N(C)C2CCN(C)C2=O)cc1` (stereo not given), for which the cytotoxicity at 70.5 h was -1.43%.

As for `O=C(CC1CC1)N1CCC2(CC1)CN(c1ncc(F)cn1)CCO2`, the cytotoxicity at 70.5 h was -9.05%.

On to `CC1CCN(S(=O)(=O)N2CCc3c(c(C(=O)O)nn3CC3CC3)C2)CC1`, for which the cytotoxicity at 70.5 h was 1.09%.

On to `CN1CCOC(c2cncc(CCC(N)=O)n2)C1` (stereo not given), for which the cytotoxicity at 70.5 h is -3.04%.

`O=C(CCc1ccc(Cl)cc1)N1CCC(O)(C(F)(F)F)C1` (stereo not given): the cytotoxicity at 70.5 h was -6.2%.

For the compound `CC(C)c1nccn1C1CCCN(C(=O)c2ccc3nncn3c2)C1` (stereo not given), the cytotoxicity at 70.5 h worked out at 13%.

Consider `CCOCCOC(C)C(=O)NCc1cn2cc(Cl)ccc2n1` (stereo not given), for which the cytotoxicity at 70.5 h was determined as 15.2%.

On to `O=C(Cc1ccon1)N1CCN(c2ccncc2Cl)CC1`, for which the cytotoxicity at 70.5 h amounted to 5.48%.

In the case of `Cc1nc(CN2CCCN(C(=O)CCc3ccco3)CC2)cs1`, the cytotoxicity at 70.5 h is -12.4%.

Take `Cc1cc(F)ccc1OC1(C(=O)O)CCN(Cc2c[nH]cn2)CC1`: the cytotoxicity at 70.5 h is -4.85%.

With `CC(Cn1cccn1)NCc1csc(-c2ccsc2)n1` (stereo not given), the cytotoxicity at 70.5 h was -12.1%.

With `c1ccc(CO[C@H]2C[C@@H]3CN(Cc4cccnc4)C[C@@H]3C2)cc1`, the cytotoxicity at 70.5 h is -3.52%.

Turning to `CN(C)C(=O)c1ccc(C2CCCNC2)nc1` (stereo not given), the cytotoxicity at 70.5 h was -6.57%.

In the case of `CCN(Cc1ccc(C(C)=O)cc1)CC1CCOCC1`, the cytotoxicity at 70.5 h was 20.6%.

`Cc1cc(C)c(CNC(=O)NCC2COCCO2)c(=O)[nH]1` (stereo not given): the cytotoxicity at 70.5 h was -4.78%.

`Nc1nccc(N2CCCC(CO)(CCOc3ccccc3)C2)n1` (stereo not given): the cytotoxicity at 70.5 h came to 8.14%.

As for `COCCN1CCCN(C(=O)c2scnc2C)CC1`, the cytotoxicity at 70.5 h is -3.53%.

For the compound `COC(=O)c1cccc(S(=O)(=O)Nc2ccc(F)c(C(N)=O)c2)c1`, the cytotoxicity at 70.5 h amounted to 14.1%.

Take `O=C(NCCOc1ccc2c(c1)OCO2)C1CC(=O)N(CC2CC2)C1` (stereo not given): the cytotoxicity at 70.5 h was found to be 1.74%.

`CCc1ncc2c(n1)CN(CC(=O)Nc1cc(C)no1)CC2`: the cytotoxicity at 70.5 h was -0.924%.

As for `COC(=O)N1CC[C@@]2(O)CCCC[C@H]2[C@@H]1c1ccc2c(c1)OCO2`, the cytotoxicity at 70.5 h is -4.3%.

Regarding `Cc1ccsc1CCNC(=O)CCC(=O)NC1CCCC1`, the cytotoxicity at 70.5 h was -15.3%.

As to `Cc1cnn(CC2CCCN2C(=O)c2ccc(OCC3CC3)nc2)c1` (stereo not given), the cytotoxicity at 70.5 h was -6.47%.

Consider `CCn1cc2c(n1)C(COCC1CC1)CN(C(=O)c1cc(C)on1)C2` (stereo not given), for which the cytotoxicity at 70.5 h was -10.4%.

`Cc1ccc(Oc2ncccc2C(=O)N(C)CC2OCCO2)c(C)c1`: the cytotoxicity at 70.5 h was -4.31%.

Regarding `Cn1ccnc1SCCNC(=O)Cn1cnc2ccccc2c1=O`, the cytotoxicity at 70.5 h is 1.77%.

Turning to `Cc1nn(C)c(C)c1C1CCCN1C(=O)CCCn1cccn1` (stereo not given), the cytotoxicity at 70.5 h is -14.1%.

As to `CC1(c2nccs2)CCN(C(=O)CCN2CCOCC2)CC1`, the cytotoxicity at 70.5 h is -1.94%.

Turning to `c1ccc2oc(CN3CCOC(Cn4cccn4)C3)nc2c1` (stereo not given), the cytotoxicity at 70.5 h is -0.847%.

As to `Cc1cnc(CNC(=O)[C@@]23CCO[C@@H]2CCN(C2CCCC2)C3)cn1`, the cytotoxicity at 70.5 h is -1.73%.

For `c1cnc(N2CCC3(CCCN(CC4CC4)C3)CC2)nc1`, the cytotoxicity at 70.5 h is -6.6%.

Regarding `Cc1cc(C(F)F)nn1C(C)C(=O)NCc1nccn1C` (stereo not given), the cytotoxicity at 70.5 h was -0.123%.

In the case of `Cc1ccc(CN2CCN(C3CCSCC3)CC2CCO)o1` (stereo not given), the cytotoxicity at 70.5 h was -0.539%.

Take `CC1CN(c2ccc(CNC(=O)NCCO)cn2)CCO1` (stereo not given): the cytotoxicity at 70.5 h is -8.22%.
